“Also recorded” adds a separate entry of the source.
What was measured:
normal wild-type mice = experiment: Toxicity of 7-day gavage in normal wild-type mice
Experimental: During the continuous gavage administration of N-hydap (2, 5, 10 mg/kg) to mice, their body weight was monitored daily and the mice’s activity and mental state were closely observed. […] To assess the extent of injury in the heart, liver, and kidneys, cardiac LDH, plasma ALT, AST, and Cr were measured as biochemical markers (Fig. 7B–D). Additionally, blood routines were examined, including RBC (10^12/L), HCT (%), HGB (g/dL), WBC (10^9/L), PLT (10^9/L), and Lymphocytes (%), which were used as indicators to evaluate spleen toxicity (Fig. 7E). […] To investigate this further, HE staining on tissue sections was performed from both the control group and the highest dose group (10 mg/kg).
Fig. 7 Normal wild-type mice were administered by N-hydap (2, 5, 10 mg/kg) gavage for 7 days. A Changes in body weight in mice. B Cardiac LDH level. C, D Plasma ALT, AST and Cr levels. E Blood routine indicators including RBC, HCT, HGB, WBC, PLT and Lymphocytes. F H&E staining of sections of primary organs, original magnification ×200 (mean ± S.D, n = 5–6/group). ns, no significance, were compared with control group.

Ugt1a9 [1] = experiment: DME activity ex vivo in MLMs and MKMs: UGT1A9 (Prop-G from Prop); set-up: species or system mice; key to UGT1A9 Enzymatic activity: ↑: up-regulation; ↓: down-regulation; –: no change
Experimental: (§1) Mice were randomly divided into four groups, with eight animals in each group. The mice received oral pretreatment with N-hydap for 7 days at doses of 2, 5, and 10 mg/kg/day, which were considered as the low dose, medium dose, and high dose, respectively. Correspondingly, the control group received PBS. On the 8th day, the liver and kidneys were removed, and organs from eight mice per group were combined to prepare MLMs and MKMs using the detailed procedures above. Subsequently, we determined the activity of CYP and UGT enzymes by specific substrate metabolized with MLMs (0.5 mg/mL) and MKMs (0.2 mg/mL) in vitro. Specifically, the following selective substrates were used for the respective enzymes: PH (1 μM) for CYP1A2, DIC (1 μM) for CYP2C9, MP (90 μM) for CYP2C19, DM (1 μM) for CYP2D6, CZX (10 μM) for CYP2E1, Tes (1 μM) for CYP3A4, SN38 (1 μM) for UGT1A1, CACD (100 μM) for UGT1A3, Sero (20 μM) for UGT1A6, and Prop (1 μM) for UGT1A9. All substrates were dissolved in methanol or DMSO. The incubation procedure was carried out as mentioned above, and the reaction was terminated with VER (20 ng/mL) in ESI+ mode and CLP (200 ng/mL) in ESI− mode. In the ex vivo experiments, the activity of enzymes was measured by quantifying the production of various metabolites (nM/mg protein/min). The metabolites and their corresponding enzymes are as follows: APAP from PH, 4-OH-DIC from DIC, 4-OH-MP from MP, DXO from DM, 6-OH-CZX from CZX, 6-OH-Tes from Tes, SN38-G from SN38, CACD-G from CACD, Sero-G from Sero, Prop-G from Prop. The measurements were performed using multiple reaction monitoring (MRM) transitions, which are specific mass spectrometry transitions used for quantification. The optimized parameters for each metabolite, such as declustering potential and collision energy, were described in Supplementary Table 1. All experiments were conducted in triplicate, to ensure accuracy and reproducibility.

Ugt1a9 [2] = experiment: Real-time PCR mRNA level after 7 days gavage: Ugt1a9; assay type: in vivo, mice; set-up: key to UGT1A9 mNA expression: ↑: up-regulation; ↓: down-regulation; –: no change
Experimental: as §1, with “The optimized parameters for each metabolite, such as declustering potential and collision energy, were described in Supplementary Table 1. All experiments were conducted in triplicate, to ensure accuracy and reproducibility.” left out
(§2) Total RNA from liver and kidney samples taken after 7 days of N-hydap gavage was extracted using the Animal Total RNA Isolation Kit (Foregene, Chengdu, Sichuan, China) following the manufacturer’s instructions. The concentrations of total RNA were determined by a nucleic acid concentration tester at 260/280 nm. […]

Ugt1a1 = experiment: Real-time PCR mRNA level after 7 days gavage: Ugt1a1; assay type: in vivo, mice; set-up: key to UGT1A1 mNA expression: ↑: up-regulation; ↓: down-regulation; –: no change
Experimental: as §1, with “The optimized parameters for each metabolite, such as declustering potential and collision energy, were described in Supplementary Table 1. All experiments were conducted in triplicate, to ensure accuracy and reproducibility.” left out
as §2

[3] = mice, 2, 5, 10 mg/kg gavage, 7 days

**Q.** Which “Toxicity LD50, experimental results” value (normal wild-type mice; Table 4 experimental column) does the source give for `CC1CCC2C(C=CC(C)C2C(=O)c2c(O)c(C3(O)CCC(O)C4OC43)cn(O)c2=O)C1` (stereo not drawn) [N-hydap, N-Hydroxyapiosporamide] here?
**A.** High security

**Q.** What about the behavior during gavage (normal wild-type mice; [3]) of the same molecule?
**A.** did not exhibit any abnormal behavior

**Q.** What about the “biochemical markers (cardiac LDH, plasma ALT, AST, Cr) and blood routine indicators vs control” value (normal wild-type mice; [3]) of the same molecule?
**A.** did not show any significant differences

**Q.** What about the body weight (normal wild-type mice; [3]) of the same molecule?
**A.** No significant changes

**Q.** What about the “HE staining of important tissues and organs” value (normal wild-type mice; mice, highest dose group 10 mg/kg, 7 days) of the same molecule?
**A.** maintained their structural integrity

**Q.** And the “toxicity of continuous gavage at normal doses” value (normal wild-type mice; normal wild mice, 2, 5, 10 mg/kg, 7 days)?
**A.** did not result in significant toxicity; also recorded: did not exhibit any toxicity

**Q.** What about the “UGT1A9 Enzymatic activity” value (Ugt1a9 [1]; Kidney) of the same molecule?
**A.** ↑

**Q.** What about the “UGT1A9 Enzymatic activity” value (Ugt1a9 [1]; Liver) of the same molecule?
**A.** ↓

**Q.** And the “reduction of formation rate of Prop-G vs control” value (Ugt1a9 [1]; liver microsomes of mice pretreated 7 days p.o.)?
**A.** 47%

**Q.** What about the “UGT1A9 mNA expression” value (Ugt1a9 [2]; Kidney) of the same molecule?
**A.** –

**Q.** And the “UGT1A9 mNA expression” value (Ugt1a9 [2]; Liver)?
**A.** –

**Q.** And the “mRNA levels of Ugt1a9” value (Ugt1a9 [2]; mice, 2, 5, 10 mg/kg p.o. 7 days)?
**A.** No significant changes

**Q.** And the “UGT1A1 mNA expression” value (Ugt1a1; Kidney)?
**A.** ↓

**Q.** And the “UGT1A1 mNA expression” value (Ugt1a1; Liver)?
**A.** –

**Q.** What about the “mRNA levels of Ugt1a1” value (Ugt1a1; mice, 2, 5, 10 mg/kg p.o. 7 days, kidneys) of the same molecule?
**A.** slight reduction

Source: paper PMC11109052, “Metabolism characterization and toxicity of N-hydap, a marine candidate drug for lung cancer therapy by LC–MS method” (Natural Products and Bioprospecting, 2024)
